Data as given in patent US20230103631A1, “PEPTIDES AS SELECTIVE GIP RECEPTOR AGONISTS” (Sanofi, priority 2020, published 2023).
*1 amine or outer side, *2 acyl side, *3 side chain or, on linkers, in order; H or OH if unused. Where a SMILES comes first, the peptide text is derived from it. Side-chain parts run from the residue outwards. [ ]: non-standard residue; d: D form. The star is where a group is joined. C20 diacid = O=C(O)CCCCCCCCCCCCCCCCCCC(=O)*; C18 diacid = O=C(O)CCCCCCCCCCCCCCCCC(=O)*; γGlu = O=C(O)[C@H](CCC(=O)[*:2])N[*:1]; AEEA = NCCOCCOCC(=O)O; Aib = CC(C)(N)C(=O)O; Sar = CNCC(=O)O

How the values were obtained:
[1] = Dynamic light scattering (DLS) for the assessment of physical stability; format: physicochemical; conditions: DLS buffer system A
Source text: A monochromatic and coherent light beam (laser) is used to illuminate the liquid sample. Dynamic Light Scattering (DLS) measures light scattered from particles (1 nm≤radius≤1 μm) that undergo Brownian motion. This motion is induced by collisions between the particles and solvent molecules, that themselves are moving due to their thermal energy. The diffusional motion of the particles results in temporal fluctuations of the scattered light (R. Pecora, Dynamic Light Scattering: Applications of Photon Correlation Spectroscopy, Plenum Press, 1985).
The scattered light intensity fluctuations are recorded and transformed into an autocorrelation function. By fitting the autocorrelation curve to an exponential function, the diffusion coefficient D of the particles in solution can be derived. The diffusion coefficient is then used to calculate the hydrodynamic radius Rh (or apparent Stokes radius) through the Stokes-Einstein equation assuming spherical particles. This calculation is defined in ISO 13321 and ISO 22412 (International Standard ISO13321 Methods for Determination of Particle Size Distribution Part 8: Photon Correlation Spectroscopy, International Organisation for Standardisation (ISO) 1996; International Standard ISO22412 Particle Size Analysis—Dynamic Light Scattering, International Organisation for Standardisation, 2008).
In case of polydisperse samples, the autocorrelation function is the sum of the exponential decays corresponding to each of the species. The temporal fluctuations of the scattered light can then be used to determine the size distribution profile of the particle fraction or family. The first order result is an intensity distribution of scattered light as a function of the particle size. The intensity distribution is naturally weighted according to the scattering intensity of each particle fraction or family. For biological materials or polymers, the particle scattering intensity is proportional to the square of the molecular weight. Thus, small amount of aggregates/agglomerates or presence or a larger particle species can dominate the intensity distribution. However, this distribution can be used as a sensitive detector for the presence of large material in the sample.
The DLS technique produces distributions with inherent peak broadening. The polydispersity index % Pd is a measure of the width of the particle size distribution and is calculated by standard methods described in ISO13321 and ISO22412 [International Standard ISO13321 Methods for Determination of Particle Size Distribution Part 8: Photon Correlation Spectroscopy, International Organisation for Standardisation (ISO) 1996; International Standard ISO22412 Particle Size Analysis—Dynamic Light Scattering, International Organisation for Standardisation (ISO) 2008].
Solutions from solid samples were prepared in buffer systems (see below) with a target concentration of 300 μM compound based on the previously determined % purity.
DLS buffer system A) 20 mM phosphate buffer pH 7.4
DLS buffer system B) 8 mM phosphate buffer pH 7.4, 14 mg/ml propylene glycol, 5.5 mg/ml phenol
DLS buffer system C) 100 mM phosphate buffer pH 7.4, 2.7 mg/ml m-cresol Solutions were filtered through 0.22 μm pore size and filled into sterilized glass containers under laminar flow conditions. For every peptide solution, the apparent hydrodynamic radius (Rh), the corresponding Scattering Intensity (I), and the Mass Contribution (M) were determined as an average over 3-6 replicates from the intensity distribution of the scattered light averaging only high-quality measurements. Relative standard deviations (RSD) for these parameters were calculated from the same number of replicates. […]

human GIP receptor = target: T1, human GIP receptor (Homo sapiens, UniProt P48546); test: cAMP HTRF assay in human adipocytes endogenously expressing the human GIP receptor; format: cell-based; conditions: for EC50: read-out: hGIPR EC50; for Emax: read-out: hGIPR Emax
T1 construct: human adipocytes endogenously expressing the human GIP receptor; host or cells: human preadipocytes (Lonza) differentiated to adipocytes
T1 sequence (P48546 22-466): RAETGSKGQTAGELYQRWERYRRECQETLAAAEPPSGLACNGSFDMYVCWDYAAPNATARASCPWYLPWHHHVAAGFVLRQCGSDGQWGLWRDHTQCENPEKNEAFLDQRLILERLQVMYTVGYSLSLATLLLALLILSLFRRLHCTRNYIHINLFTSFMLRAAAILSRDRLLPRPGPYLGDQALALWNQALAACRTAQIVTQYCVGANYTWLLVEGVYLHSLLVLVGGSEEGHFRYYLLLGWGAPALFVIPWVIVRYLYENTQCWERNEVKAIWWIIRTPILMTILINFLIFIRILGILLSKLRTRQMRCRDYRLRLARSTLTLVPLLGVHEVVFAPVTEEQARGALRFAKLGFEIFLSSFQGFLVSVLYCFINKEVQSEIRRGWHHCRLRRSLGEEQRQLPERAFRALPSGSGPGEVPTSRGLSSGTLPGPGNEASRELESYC
Description: For this, one vial of human preadipocytes (˜10^6 cells; Lonza) was thawed in a T-75 cell culture dish.
After 3 days, the cells were washed with PBS and 1.5 ml Trypsin, incubated for 4 min, then resuspended in medium, centrifugated for 10 min @ 300 rcf RT, resuspended again and distributed to four T-75 cell culture dishes.
After 5 days, the cells were washed with PBS and 1.5 ml Trypsin, incubated for 4 min, then resuspended in medium, centrifugated for 10 min @ 300 rcf RT, resuspended again and sawn in T-75 dishes (2.5×10^6 cells per dish) in 15 ml Differentiation medium each.
After 6 days of differentiation, 5000 cells per well were dispensed on a 96-well plate (#CLS3694 from Corning®, Sigma-Aldrich). For measurement of cAMP generation, 25 μL of test compound was added to each well of the 96-well plate, followed by incubation for 30 min at room temperature.
The cAMP generated following test compound stimulation was determined using a kit from Cisbio Corp. based on HTRF (Homogenous Time Resolved Fluorescence). The cAMP assay was performed according to manufacturer's instructions (Cisbio).
The cAMP content of cells was determined using a kit from Cisbio Corp. based on HTRF (Homogenous Time Resolved Fluorescence).

physchem = format: physicochemical; conditions: for Soluble amount: 24 h, pH 7.4; for solubility at 24 h: pH 7.4, Soluble amount
Method in brief: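 Peptide at 10 mg/ml (purity-corrected) in 100 mM phosphate pH 7.4, alone or with 2.7 mg/ml m-cresol; 1 h gentle agitation, then 24 h at 5 °C. Supernatant after 15 min at 2500 RCF quantified by UHPLC-UV against reference peptide, adjusted for extinction coefficients.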

Compound | I and SD (Scattering Intensity) ([1]; 0 weeks) [%] | M and SD (Mass Contribution) ([1]; 0 weeks) [%] | apparent Rh and SD ([1]; 0 weeks) [nm] | I and SD (Scattering Intensity) ([1]; 4 weeks storage at 40° C.) [%] | M and SD (Mass Contribution) ([1]; 4 weeks storage at 40° C.) [%] | apparent Rh and SD ([1]; 4 weeks storage at 40° C.) [nm] | EC50 (human GIP receptor) [nM] | Emax (human GIP receptor) [%] | Soluble amount (physchem) [mg/mL] | solubility at 24 h (physchem) [µg/mL]
CC[C@H](C)[C@H](NC(=O)[C@H](CCCNC(=N)N)NC(=O)[C@H](CC(=O)O)NC(=O)[C@H](CCCCNC(=O)CNC(=O)CNC(=O)CNC(=O)CC[C@H](NC(=O)CCCCCCCCCCCCCCCCC(=O)O)C(=O)O)NC(=O)C(C)(C)NC(=O)[C@@H](NC(=O)[C@H](CO)NC(=O)[C@H](CC(C)C)NC(=O)[C@H](CC(=O)O)NC(=O)[C@H](CO)NC(=O)[C@@H](NC(=O)[C@H](Cc1ccccc1)NC(=O)[C@@H](NC(=O)CNC(=O)[C@H](CCC(=O)O)NC(=O)C(C)(C)NC(=O)[C@@H](N)Cc1ccc(O)cc1)[C@@H](C)O)[C@@H](C)CC)[C@@H](C)CC)C(=O)N[C@@H](Cc1c[nH]cn1)C(=O)N[C@@H](CCC(N)=O)C(=O)NC(C)(C)C(=O)N[C@@H](CCC(=O)O)C(=O)N[C@@H](Cc1ccccc1)C(=O)N[C@H](C(=O)N[C@@H](CCC(=O)O)C(=O)N[C@@H](Cc1c[nH]c2ccccc12)C(=O)N[C@@H](CC(C)C)C(=O)N[C@@H](CC(C)C)C(=O)N[C@@H](C)C(=O)N[C@@H](CCC(N)=O)C(=O)NCC(=O)N1CCC[C@H]1C(=O)N[C@@H](CO)C(=O)N[C@@H](CO)C(=O)NCC(=O)N[C@@H](C)C(=O)N1CCC[C@H]1C(=O)N1CCC[C@H]1C(=O)N1CCC[C@H]1C(=O)N[C@@H](CO)C(N)=O)[C@@H](C)CC [SEQ ID NO: 5, H2N-Y-Aib-E-G-T-F-I-S-D-I-S-I-Aib-K[{Gly}3-gGlu-C18OH]-D-R-I-H-Q-Aib-E-F-I-E-W-I-L-A-Q-G-P-S-S-G-A-P-P-P-S-NH2] (H-Y[Aib]EGTFISDLSI[Aib]K([Gly-Gly-Gly-γGlu-C18 diacid])DRIHQ[Aib]EFIEWLLAQGPSSGAPPPS-NH2) | 76 ± 2 | 100 ± 0 | 2.05 ± 0.04 | 89 ± 3 | 100 ± 0 | 1.99 ± 0.03 | 0.5 | 137 | >8.3 | > 9300
CC[C@H](C)[C@H](NC(=O)[C@H](CCCNC(=N)N)NC(=O)[C@H](CC(=O)O)NC(=O)[C@H](CCCCNC(=O)CN(C)C(=O)CN(C)C(=O)CN(C)C(=O)CC[C@H](NC(=O)CCCCCCCCCCCCCCCCC(=O)O)C(=O)O)NC(=O)C(C)(C)NC(=O)[C@@H](NC(=O)[C@H](CO)NC(=O)[C@H](CC(C)C)NC(=O)[C@H](CC(=O)O)NC(=O)[C@H](CO)NC(=O)[C@@H](NC(=O)[C@H](Cc1ccccc1)NC(=O)[C@@H](NC(=O)CNC(=O)[C@H](CCC(=O)O)NC(=O)C(C)(C)NC(=O)[C@@H](N)Cc1ccc(O)cc1)[C@@H](C)O)[C@@H](C)CC)[C@@H](C)CC)C(=O)N[C@@H](Cc1c[nH]cn1)C(=O)N[C@@H](CCC(N)=O)C(=O)NC(C)(C)C(=O)N[C@@H](CCC(=O)O)C(=O)N[C@@H](Cc1ccccc1)C(=O)N[C@H](C(=O)N[C@@H](CCC(=O)O)C(=O)N[C@@H](Cc1c[nH]c2ccccc12)C(=O)N[C@@H](CC(C)C)C(=O)N[C@@H](CC(C)C)C(=O)N[C@@H](C)C(=O)N[C@@H](CCC(N)=O)C(=O)NCC(=O)N1CCC[C@H]1C(=O)N[C@@H](CO)C(=O)N[C@@H](CO)C(=O)NCC(=O)N[C@@H](C)C(=O)N1CCC[C@H]1C(=O)N1CCC[C@H]1C(=O)N1CCC[C@H]1C(=O)N[C@@H](CO)C(N)=O)[C@@H](C)CC [SEQ ID NO: 6, H2N-Y-Aib-E-G-T-F-I-S-D-I-S-I-Aib-K[{N-MeGly}3-gGlu-C18OH]-D-R-I-H-Q-Aib-E-F-I-E-W-I-L-A-Q-G-P-S-S-G-A-P-P-P-S-NH2] (H-Y[Aib]EGTFISDLSI[Aib]K([Sar-Sar-Sar-γGlu-C18 diacid])DRIHQ[Aib]EFIEWLLAQGPSSGAPPPS-NH2) | 86 ± 2 | 100 ± 0 | 1.92 ± 0.03 | 83 ± 1 | 100 ± 0 | 1.94 ± 0.03 | 0.3 | 112 | >8.9 | > 10800
CC[C@H](C)[C@H](NC(=O)[C@H](CCCNC(=N)N)NC(=O)[C@H](CC(=O)O)NC(=O)[C@H](CCCCNC(=O)COCCOCCNC(=O)COCCOCCNC(=O)CC[C@H](NC(=O)CCCCCCCCCCCCCCCCCCC(=O)O)C(=O)O)NC(=O)C(C)(C)NC(=O)[C@@H](NC(=O)[C@H](CO)NC(=O)[C@H](CC(C)C)NC(=O)[C@H](CC(=O)O)NC(=O)[C@H](CO)NC(=O)[C@@H](NC(=O)[C@H](Cc1ccccc1)NC(=O)[C@@H](NC(=O)CNC(=O)[C@H](CCC(=O)O)NC(=O)C(C)(C)NC(=O)[C@@H](N)Cc1ccc(O)cc1)[C@@H](C)O)[C@@H](C)CC)[C@@H](C)CC)C(=O)N[C@@H](Cc1c[nH]cn1)C(=O)N[C@@H](CCC(N)=O)C(=O)NC(C)(C)C(=O)N[C@@H](CCC(=O)O)C(=O)N[C@@H](Cc1ccccc1)C(=O)N[C@H](C(=O)N[C@@H](CCC(=O)O)C(=O)N[C@@H](Cc1c[nH]c2ccccc12)C(=O)N[C@@H](CC(C)C)C(=O)N[C@@H](CC(C)C)C(=O)N[C@@H](C)C(=O)N[C@@H](CCC(N)=O)C(=O)NCC(=O)N1CCC[C@H]1C(=O)N[C@@H](CO)C(=O)N[C@@H](CO)C(=O)NCC(=O)N[C@@H](C)C(=O)N1CCC[C@H]1C(=O)N1CCC[C@H]1C(=O)N1CCC[C@H]1C(=O)N[C@@H](CO)C(N)=O)[C@@H](C)CC [SEQ ID NO: 7, H2N-Y-Aib-E-G-T-F-I-S-D-I-S-I-Aib-K[{AEEA}2-gGlu-C20OH]-D-R-I-H-Q-Aib-E-F-I-E-W-I-L-A-Q-G-P-S-S-G-A-P-P-P-S-NH2] (H-Y[Aib]EGTFISDLSI[Aib]K([AEEA-AEEA-γGlu-C20 diacid])DRIHQ[Aib]EFIEWLLAQGPSSGAPPPS-NH2) | 85 ± 2 | 100 ± 0 | 2.06 ± 0.03 | 73 ± 4 | 100 ± 0 | 2.04 ± 0.02 | 0.3 | 121 | >5.9 | > 6900
